Data set [1] can be described thus: Oral bioavailability in Sprague-Dawley rat at 5 mg/kg. Type of data set: ADME, organism-based. The following applies: in vivo.
A short description of data set [2]: Metabolic stability in human liver S9 fraction assessed as compound remaining after 2 hrs. Type of data set: ADME, subcellular. The note with it: read-out: Stability.
Data set [3] is described as follows: Metabolic stability in mouse liver S9 fraction assessed as compound remaining after 2 hrs. Type of data set: ADME, subcellular. The note with it: read-out: Stability.
Data set [4] can be described thus: Metabolic stability in dog liver S9 fraction assessed as compound remaining after 2 hrs. Type of data set: ADME, subcellular, Canis lupus familiaris. The following applies: read-out: Stability.
Data set [5] can be described thus: Metabolic stability in monkey liver S9 fraction assessed as compound remaining after 2 hrs. The data set is classed as ADME, subcellular, Macaca mulatta. The note with it: rhesus monkey, read-out: Stability.
The nature of data set [6]: Metabolic stability in rat liver S9 fraction assessed as compound remaining after 2 hrs. Type of data set: ADME, subcellular. The following applies: read-out: Stability.
Data set [7] addresses Vascular endothelial growth factor receptor 2 (Homo sapiens, UniProt P35968).
Description: Inhibition of human recombinant VEGF-R2 expressed in baculovirus expression system using GST-PLCgamma as substrate after 1 hr by time-resolved fluorescence analysis
The target of another data set is Angiopoietin-1 receptor (Homo sapiens, UniProt Q02763).
Angiopoietin-1 receptor, sequence (Q02763 whole entry): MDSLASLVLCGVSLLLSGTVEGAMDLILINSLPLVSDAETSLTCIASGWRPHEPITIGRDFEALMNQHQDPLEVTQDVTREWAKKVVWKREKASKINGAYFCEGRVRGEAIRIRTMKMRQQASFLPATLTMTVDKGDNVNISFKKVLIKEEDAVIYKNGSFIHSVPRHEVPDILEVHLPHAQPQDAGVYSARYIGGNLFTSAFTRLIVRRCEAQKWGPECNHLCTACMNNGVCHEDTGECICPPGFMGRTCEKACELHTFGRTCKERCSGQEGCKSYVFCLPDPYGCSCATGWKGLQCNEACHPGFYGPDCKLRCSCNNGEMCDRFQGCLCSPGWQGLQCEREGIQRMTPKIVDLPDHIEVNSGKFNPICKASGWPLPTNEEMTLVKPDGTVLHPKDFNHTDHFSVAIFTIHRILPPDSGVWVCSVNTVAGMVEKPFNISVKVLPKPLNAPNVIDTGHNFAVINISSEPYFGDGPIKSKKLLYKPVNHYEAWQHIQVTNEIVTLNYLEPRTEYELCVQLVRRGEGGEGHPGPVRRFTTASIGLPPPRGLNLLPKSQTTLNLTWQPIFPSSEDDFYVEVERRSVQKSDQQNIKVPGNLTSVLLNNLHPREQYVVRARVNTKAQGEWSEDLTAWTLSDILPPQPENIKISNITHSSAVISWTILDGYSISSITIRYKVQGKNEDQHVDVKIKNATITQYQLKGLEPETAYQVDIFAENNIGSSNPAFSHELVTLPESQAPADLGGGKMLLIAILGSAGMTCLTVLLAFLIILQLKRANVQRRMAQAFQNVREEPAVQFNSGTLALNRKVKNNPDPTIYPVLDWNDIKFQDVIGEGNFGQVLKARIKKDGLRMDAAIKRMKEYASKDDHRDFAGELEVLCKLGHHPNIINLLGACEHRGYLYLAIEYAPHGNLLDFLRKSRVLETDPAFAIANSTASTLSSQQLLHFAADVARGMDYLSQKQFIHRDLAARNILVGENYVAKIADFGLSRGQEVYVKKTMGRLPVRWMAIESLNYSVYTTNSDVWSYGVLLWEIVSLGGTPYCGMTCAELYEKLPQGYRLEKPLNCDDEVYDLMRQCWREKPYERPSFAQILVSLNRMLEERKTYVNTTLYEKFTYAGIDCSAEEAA

Vascular endothelial growth factor receptor 2, sequence (P35968 whole entry): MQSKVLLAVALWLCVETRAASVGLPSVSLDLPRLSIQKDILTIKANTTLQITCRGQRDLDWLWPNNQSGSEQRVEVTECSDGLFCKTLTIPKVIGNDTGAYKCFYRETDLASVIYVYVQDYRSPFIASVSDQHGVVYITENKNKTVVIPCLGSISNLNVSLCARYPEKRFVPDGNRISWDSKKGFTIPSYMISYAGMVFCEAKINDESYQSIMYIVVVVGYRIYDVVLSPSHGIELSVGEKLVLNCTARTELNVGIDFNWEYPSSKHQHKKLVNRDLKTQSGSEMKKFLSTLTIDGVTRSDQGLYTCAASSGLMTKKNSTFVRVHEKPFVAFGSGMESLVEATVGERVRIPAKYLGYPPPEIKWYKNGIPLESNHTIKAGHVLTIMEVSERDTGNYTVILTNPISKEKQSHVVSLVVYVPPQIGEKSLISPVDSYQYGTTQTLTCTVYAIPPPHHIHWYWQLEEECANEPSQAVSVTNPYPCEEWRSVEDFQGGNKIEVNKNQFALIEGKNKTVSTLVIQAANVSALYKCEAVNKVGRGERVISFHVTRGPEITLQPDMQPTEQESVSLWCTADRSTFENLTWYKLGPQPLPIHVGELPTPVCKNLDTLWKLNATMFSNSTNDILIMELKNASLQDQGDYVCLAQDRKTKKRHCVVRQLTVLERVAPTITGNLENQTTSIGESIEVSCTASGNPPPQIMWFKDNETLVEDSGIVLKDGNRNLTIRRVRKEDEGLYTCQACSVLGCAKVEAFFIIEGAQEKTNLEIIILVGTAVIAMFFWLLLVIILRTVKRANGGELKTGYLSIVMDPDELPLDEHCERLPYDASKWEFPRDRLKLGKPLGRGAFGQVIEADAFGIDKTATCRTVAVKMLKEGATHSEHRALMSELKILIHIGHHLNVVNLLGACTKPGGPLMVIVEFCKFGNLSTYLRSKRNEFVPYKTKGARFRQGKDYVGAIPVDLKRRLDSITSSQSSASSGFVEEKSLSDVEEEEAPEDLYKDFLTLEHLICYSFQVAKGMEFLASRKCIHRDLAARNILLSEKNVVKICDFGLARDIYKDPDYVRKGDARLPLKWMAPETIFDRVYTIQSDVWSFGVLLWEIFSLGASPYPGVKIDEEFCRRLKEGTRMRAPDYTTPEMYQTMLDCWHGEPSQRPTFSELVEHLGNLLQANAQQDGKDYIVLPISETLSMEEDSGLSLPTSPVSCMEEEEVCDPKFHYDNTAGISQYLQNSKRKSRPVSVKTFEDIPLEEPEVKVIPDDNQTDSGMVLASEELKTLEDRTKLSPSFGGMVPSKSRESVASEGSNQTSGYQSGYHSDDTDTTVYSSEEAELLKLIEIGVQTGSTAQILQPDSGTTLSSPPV
Description for Angiopoietin-1 receptor: Inhibition of human recombinant Tie2 expressed in baculovirus expression system using GST-PLCgamma as substrate after 1 hr by time-resolved fluorescence analysis

As to `CCCn1c2ccc(Nc3ncccn3)cc2c2c3c(c4c(c21)CCc1nn(C)cc1-4)C(=O)NC3`, the bioavailability in data set [1] amounted to 22%. The remaining at 2 h in data set [2] is 54%; in data set [3], 65%; in data set [4], 65%; in data set [5], 44%; in data set [6], 65%.
In the case of `Cc1cc(C)nc(Nc2ccc3c(c2)c2c4c(c5c(c2n3CC(C)C)CCc2nn(C)cc2-5)C(=O)NC4)n1`, the IC50 (in data set [7]; against Angiopoietin-1 receptor) was greater than 3 µM throughout.
`COc1ccnc(Nc2ccc3c(c2)c2c4c(c5c(c2n3CC(C)C)CCc2nn(C)cc2-5)C(=O)NC4)n1` had an IC50 against Angiopoietin-1 receptor greater than 1 µM.
Still for that read-out and setting: the result for `CC(C)Cn1c2ccc(Nc3nccc(C(F)(F)F)n3)cc2c2c3c(c4c(c21)CCc1nn(C)cc1-4)C(=O)NC3` reads greater than 3 µM; that for `CC(C)n1c2ccc(Nc3ccncc3)cc2c2c3c(c4c(c21)CCc1nn(C)cc1-4)C(=O)NC3`, greater than 3 µM.
Take `CC(C)OCc1ccc2c(c1)c1c3c(c4c(c1n2CCCO)Cc1ccccc1-4)C(=O)NC3` [CEP-5214]: at Angiopoietin-1 receptor, the half-maximal inhibitory concentration (IC50) was greater than 10 µM.

Usually bioavailability stands for dose-corrected exposure relative to a reference, in per cent. By IC50 is commonly meant the concentration that inhibits the measured activity by half.

The values above are taken from ChEMBL document CHEMBL2010689 (J Med Chem, 2012).
